“Also recorded” adds a separate entry of the source.
How the values were obtained:
Assay type in all cases: cell-based
OPM-2 cells = experiment: OPM-2 cell proliferation assay (CellTiter-Glo)
Description: (§1) MM1.S (dexamethasone sensitive) and OPM-2 cells were purchased from ATCC and maintained in RPMI-1640 medium with 10% fetal bovine serum at 37 degrees, 5% CO2. Cells were seeded at 10,000 cells/well in 100 uL medium. The following day compounds or control vehicle (DMSO) were added at indicated concentrations in 10 ul volume. Compound treated OPM-2 cells and MM1.S cell were analyzed for cell density at 72h and 96h, respectively, using CellTiter-Glo® (CTG) reagent (Promega). The CTG assay measures the amount of ATP present, which indicates the number of viable cells in culture.

[1] = system: MYC, SOX2, involucrin and Keratin 14 expression in HCC2429 cells; experiment: Biomarker analysis in HCC2429 cells (RT-PCR, Western blot)
Description: HCC2429 cells were plated into a 6-well plate (250,000 cells/well). Cells were treated with compounds or control vehicle (DMSO) at the indicated concentrations for 72 hrs. Cells were collected, washed in PBS, and split for western blot and RNA analysis.

MM1.S cells = experiment: MM1.S cell proliferation assay (CellTiter-Glo)
Description: as §1

[2] = system: c-MYC and MYB expression in MM1.S cells; experiment: Biomarker analysis in MM1.S cells (RT-PCR, Western blot)
Description: MM1.S cells (1,000,000 cells) were seeded in […] in 10 mL medium. On the following day cells were treated with indicated compounds for 0, 2, 4, 6, 8, 16, and 24 hours. Cells were collected, washed in PBS, and split for western blot and RNA analysis. For western blot, cells were lysed in RIPA buffer and 30 ug protein was loaded on a 4-12% bis-tris gel under denaturing conditions and transferred to nitrocellulose. Blots were probed with primary antibodies for c-MYC (Cell Signaling #9402) and GAPDH (Cell Signaling #2118) diluted at 1:1000 and then secondary antibodies anti-mouse 680 (LiCor) and anti-rabbit 800 (Licor) and imaged on a LiCor reader. For gene expression analysis, total RNA was prepared using Qiagen total RNA kit (Qiagen) and cDNA was prepared from 100 ng RNA (high capacity cDNA kit; Applied Biosystems). Relative gene expression was analyzed on an Applied Biosystem 7900 qPCR thermocycler using gene expression assays for MYC (Hs00153408_m1), MYB (Hs00920556_m1), and GAPDH (Hs02758991_g1). Relative gene expression is calculated relative to DMSO and normalized to GAPDH expression.

HCC2429 cells = experiment: NMC HCC2429 cell proliferation assay (CellTiter-Glo); conditions: Homo sapiens; HCC2429, CTG at 96h
Description: NMC HCC2429 Cell Proliferation Assay • HCC2429 cells were plated into a 96-well plate (10,000 cells/well). Compounds or control vehicle (DMSO) were added at indicated concentrations. Compound-treated HCC2429 cells were analyzed for cell density at 96h using CellTiter-Glo® (CTG) reagent (Promega).

[3] = HCC2429, Western blot, 72 hrs, concentration-dependent
[4] = 0.5 uM, RT-PCR time-course 2 to 24 hours

With `CCC(=O)N(C)c1ccc2nc(NCCC(=O)O)c(=O)n([C@@H](CC)c3ccccc3)c2n1` [Example 10, N-{6-[methyl(propanoyl)amino]-3-oxo-4-[(1S)-1-phenylpropyl]-3,4-dihydropyrido[2,3-b]pyrazin-2-yl}-beta-alanine] the IC50 (OPM-2 cells; Homo sapiens, OPM-2, CTG at 72h) was 6 nM, the “inhibition of proliferation of OPM-2 cells” value (OPM-2 cells; dose dependent manner, FIG. 1.B) was “inhibited proliferation” and the “mRNA expression of involucrin” value ([1]; HCC2429, RT-PCR, 72 hours, 50 nM, 200 nM and 500 nM, dose dependent) was “increased”. The MYC protein level [1, 3] was “down-regulated”, the SOX2 protein level [1, 3] was “down-regulated” and the IC50 (MM1.S cells; Homo sapiens, MM1.S, CTG at 96h) was 2 nM. For the same compound, the “inhibition of proliferation of MM1.S cells” value (MM1.S cells; dose dependent manner, FIG. 1.A) was “inhibited proliferation”, the “expression of c-MYC mRNA relative to GAPDH” value [2, 4] was “strongly down-regulated; also recorded: down-regulated” and the “relative expression of MYB mRNA” value [2, 4] was “down-regulated”. The “relative expression of c-MYC protein” value ([2]; Western blot, 2, 4, 6, 8, 16 and 24 hours) was “down-regulated” and the IC50 (HCC2429 cells) was 47 nM.
